US6693123B2 (University of Pittsburgh, priority 1995, dated 2004)
Counter-ions that a name gives are not always drawn. Like-named read-outs stand apart in the source and are kept apart here.

Target: T1, Rat brain protein farnesyltransferase (Rattus norvegicus, UniProt Q02293+Q04631)
T1 construct: The enzyme is purified according to Reiss, Y., et al., Cell, 62: 81-88 (1990), utilizing steps one through three; from tissue; host or cells: rat brain
Assay: In vitro inhibition of protein farnesyltransferase, Amersham scintillation proximity assay with biotin-K Ras B fragment
Assay type: biochemical
Settings: for inhibition at 1 µM: read-out: % inhibition at 1 × 10^−6 M; for inhibition at 0.1 µM: read-out: % inhibition at 1 × 10^−7 M; for inhibition at 10 µM: compound at 1 × 10^−5 M (Table 1)
From the text: The ability of the compounds of the invention to inhibit protein farnesyltransferase or protein geranylgeranyltransferase can be measured according to the method of Moores, et al., J. Biol. Chem. 266: 14603 (1991) or the method of Vogt, et al., J. Biol. Chem. 270:660-664 (1995). In addition, procedures for determination of the inhibition of farnesylation of the oncogene protein Ras are described by Goldstein, et al., J. Biol. Chem., 266:15575-15578 (1991) and by Singh in U.S. Pat. No. 5,245,061.
In addition, in vitro inhibition of protein farnesyltransferase may be measured by the following procedure. Rat brain protein farnesyltransferase activity is measured using an Amersham Life Science commercial scintillation proximity assay kit and substituting a biotin-K Ras B fragment (biotin-[…]Ue-Met-CO2H), 0.1 mM final concentration, for the biotin-lamin substrate provided by Amersham. The enzyme is purified according to Reiss, Y., et al., Cell, 62: 81-88 (1990), utilizing steps one through three. […]
The % inhibition of protein farnesyltransferase was determined for representative compounds of the invention.

[1] = Inhibition of farnesyltransferase, compound at 1 × 10^−6 M (Table 2)
[2] = Inhibition of farnesyltransferase
[3] = Inhibition of farnesyltransferase, compound at 1 × 10^−8 M (Table 4), read-out: % inhibition at 1 × 10^−8 M
[4] = Inhibition of farnesyltransferase, compound at 1 × 10^−7 M (Table 3)

CSCC[C@H](NC(=O)c1ccc(NCc2ncc[nH]2)cc1-c1ccccc1C)C(=O)O [Example 386, 4-[N-(1-H-Imidazole-2-yl)methylamino-2-(2-methylphenyl)benzoyl]methionine] was tested. Which inhibition at 1 µM [1] did it give?
The inhibition at 1 µM was greater than 50%.

For CSCC[C@H](NC(=O)c1ccc(COc2cccnc2)cc1-c1ccc(C)cc1)C(=O)O [Example 206], which “% inhibition at 1 × 10^−6 M” value [1] is on record?
Its value is 67%.

Which “% inhibition at 1 × 10^−6 M” value [1] does the source give for “[4-(3-Pyridyloxymethyl)-2-(2-chlorophenyl)benzoyl]methionine Methyl Ester [Example 305]” here?
Its value is 99%.

Which inhibition at 0.1 µM does the source give for CSCC[C@H](NC(=O)c1ccc(COc2cccnc2)cc1-c1c(C)noc1C)C(=O)O [Example 823] here?
Its inhibition at 0.1 µM is 75%.

With CSCC[C@H](NC(=O)c1ccc(/C=C/c2cnc3ccccc3c2)cc1-c1ccccc1C)C(=O)O (stereo in doubt) [Example 487, N-[4-(2-Quinolin-3-ylethen-1-yl)-2-(2-methylphenyl)benzoyl]methionine Lithium Salt] as the compound, how does the inhibition at 0.1 µM read?
The inhibition at 0.1 µM was 81%.

Which inhibition at 10 µM [2] does the source give for CSCC[C@H](NC(=O)c1ccc(NCc2nc[nH]c2C)cc1-c1ccccc1)C(=O)O [Example 383, 4-[N-(5-Methyl-1-H-imidazole-4-yl)-methylene-(amino-2-phenylbenzol)]methionine] here?
The inhibition at 10 µM was greater than 50%.

With CCCOc1ccncc1C=Cc1ccc(C(=O)N[C@@H](CCSC)C(=O)O)c(-c2ccccc2C)c1 [Example 1362, N-[4-(2-(4-Propyloxypyridin-3-yl)ethenyl)-2-(2-methylphenyl)benzoyl]methionine Sodium Salt] as the compound, how does the inhibition at 0.01 µM (Inhibition of farnesyltransferase, compound at 0.01 μM (Table 6, values marked **), read-out: % inhibition at 0.01 μM) read?
The inhibition at 0.01 µM was 83%.

CSCC[C@H](NC(=O)c1ccc(NCc2c[nH]cn2)cc1-c1ccccc1)C(=O)O [Example 167, [4-(1H-Imidazol-4-ylmethyl)amino-2-phenylbenzoyl]methionine Hydrochloride] was tested. Which inhibition at 1 µM [1] did it give?
Its inhibition at 1 µM is 98%.

For CNCCc1cnc[nH]1 [Example 722], which inhibition at 1 µM is on record?
Its inhibition at 1 µM is 96%.

For COc1ccccc1-c1cc(NCc2cnc[nH]2)ccc1C(=O)N[C@@H](CC(C)C)C(=O)O [Example 397], which inhibition at 0.01 µM [3] is on record?
Its inhibition at 0.01 µM is 50%.

With “{4-[2-(Pyrid-3-yl)ethenyl]-2-(2-methylphenyl)benzyl}methionine Butyl Ester [Example 292]” as the compound, how does the “% inhibition at 1 × 10^−6 M” value [1] read?
The value was 36%.

How did the inhibition at 0.01 µM [3] turn out when CSCC[C@H](NC(=O)c1ccc(OCCn2ccnc2)cc1-c1ccccc1)C(=O)O [Example 958, N-[4-(2-Imidazol-1-ylethoxy)-2-phenylbenzoyl]methionine] was run?
The inhibition at 0.01 µM was greater than 50%.

With COC(=O)[C@H](CCSC)NC(=O)c1ccc(COc2cccnc2)cc1-c1ccccc1 [Example 234, [4-(3-Pyridyloxymethyl)-2-phenylbenzoyl]methionine Methyl Ester] as the compound, how does the inhibition at 1 µM [1] read?
Its inhibition at 1 µM is 4%.

How did the inhibition at 1 µM [1] turn out when CSCC[C@H](NC(=O)c1ccc(COc2cccnc2)cc1-c1ccccc1)C(=O)NS(C)(=O)=O [Example 250, [4-(3-Pyridyloxymethyl)-2-phenylbenzoyl]methionine Methylsulfonimide] was run?
The inhibition at 1 µM was 96%.

With CSCC[C@H](NC(=O)c1ccc(/C=C/c2cnccc2C(O)C23CC4CC(CC(C4)C2)C3)cc1-c1ccccc1C)C(=O)O (some centres unmarked) [Example 803, Lithium Salt] as the compound, how does the inhibition at 0.01 µM (read-out: % inhibition at 1 × 10^−8 M) read?
The inhibition at 0.01 µM was 95%.

Which inhibition at 10 µM [2] does the source give for CSCC[C@H](NC(=O)c1ccc(NCc2cnc(-c3ccccc3)[nH]2)cc1-c1ccccc1)C(=O)O [Example 382, 4-[N-(1-H-2-Phenylimidazole-4-yl)methylamino-2-phenylbenzoyl]-methionine] here?
Its inhibition at 10 µM is greater than 50%.

How did the inhibition at 1 µM [1] turn out when CSCC[C@H](NC(=O)c1ccc(COc2cccnc2)cc1-c1ccccc1C)C(=O)NS(C)(=O)=O [Example 252, [4-(3-Pyridyloxymethyl)-2-(2-methylphenyl)benzoyl]methionine Methylsulfonimide] was run?
Its inhibition at 1 µM is 98%.

Which inhibition at 0.01 µM [3] does the source give for CSCC[C@H](NC(=O)c1ccc(COc2cccnc2)cc1-c1ccc(F)cc1Cl)C(=O)O [Example 871, N-[4-(Pyrid-3-yloxymethyl)-2-(2-chloro-4-fluorophenyl)benzoyl]methionine] here?
The inhibition at 0.01 µM was 94%.

For CSCC[C@H](NC(=O)c1ccc(NCc2cccnc2)cc1-c1ccccc1C)C(=O)O [Example 309, [4-(3-Pyridylmethylamino)-2-(2-methylphenyl)benzoyl]methionine], which inhibition at 1 µM [1] is on record?
The inhibition at 1 µM was 98%.

With CSCC[C@H](NC(=O)c1ccc(CCn2ccnc2)cc1-c1ccccc1C)C(=O)O [Example 279, {4-[2-(1H-1-Imidazolyl)ethyl]-2-(2-methylphenyl)benzoyl}methionine Sodium Salt] as the compound, how does the inhibition at 1 µM read?
The inhibition at 1 µM was 99%.

With CSCC[C@H](NC(=O)c1ccc(CS(=O)(=O)c2cccnc2)cc1-c1ccccc1)C(=O)O [Example 233, [4-(3-Pyridylsulfonylmethyl)-2-phenylbenzoyl]methionine] as the compound, how does the inhibition at 1 µM [1] read?
Its inhibition at 1 µM is 65%.

With CSCC[C@H](NC(=O)c1ccc(COc2cccnc2)cc1-c1ccccc1)C(=O)O [Example 235, [4-(3-Pyridyloxymethyl)-2-phenylbenzoyl]methionine] as the compound, how does the inhibition at 1 µM [1] read?
The inhibition at 1 µM was 95%.

CSCC[C@H](NC(=O)c1ccc(C=Cc2cccnc2)cc1-c1ccccc1C)C(=O)OCOC(C)=O [Example 295] was tested. Which “% inhibition at 1 × 10^−6 M” value [1] did it give?
Its value is 94%.

How did the inhibition at 1 µM [1] turn out when CSCC[C@H](NC(=O)c1ccc(CSCc2c[nH]cn2)cc1-c1ccccc1C)C(=O)O [Example 331, [4-(1H-Imidazol-4-ylmethylthiomethyl)-2-(2-methylphenyl)benzoyl]methionine] was run?
Its inhibition at 1 µM is 98%.

For CS(=O)(=O)CC[C@H](NC(=O)c1ccc(CNc2cccnc2)cc1-c1ccccc1)C(=O)O [Example 239, N-[4-(3-Pyridylaminomethyl)-2-phenylbenzoyl]-2-amino-4-(methylsulfonyl)butanoic Acid], which inhibition at 1 µM [1] is on record?
The inhibition at 1 µM was 97%.

With CSCC[C@H](NC(=O)c1ccc(C#Cc2cccnc2)cc1-c1ccccc1C)C(=O)O [Example 865, N-[4-(2-Pyrid-3-ylethyn-1-yl)-2-(2-methylphenyl)benzoyl]methionine] as the compound, how does the inhibition at 0.1 µM [4] read?
Its inhibition at 0.1 µM is 95%.

With CSCC[C@H](NC(=O)c1ccc(NC(=O)c2c[nH]cn2)cc1-c1ccccc1)C(=O)O [Example 168, [4-(1H-Imidazol-4-ylcarbonyl)amino-2-phenylbenzoyl]methionine Hydrochloride] as the compound, how does the inhibition at 1 µM [1] read?
The inhibition at 1 µM was 92%.

Which “% inhibition at 1 × 10^−6 M” value [1] does the source give for CSCCC(NC(=O)c1ccc(COc2cccnc2)cc1-c1ccccc1)C(=O)NS(=O)(=O)N1CCOCC1 (centres unmarked) [Example 318, [4-(3-Pyridyloxymethyl)-2-phenylbenzoyl]methionine 1-Morpholinylsulfonimide] here?
Its value is 98%.

With CSCC[C@H](NC(=O)c1cc(CC2CCCCC2)c(COc2cccnc2)cc1-c1ccccc1C)C(=O)O [Example 921, N-[5-Cyclohexylmethyl-4-(pyrid-3-yloxymethyl)-2-(2-methylphenyl)benzoyl]methionine] as the compound, how does the inhibition at 0.1 µM [4] read?
Its inhibition at 0.1 µM is 82%.

COc1ccc(-c2cc(COc3cccnc3)ccc2C(=O)N[C@@H](CCSC)C(=O)O)cc1 [Example 209, [4-(3-Pyridyloxymethyl)-2-(4-methoxyphenyl)benzoyl]methionine] was tested. Which inhibition at 1 µM [1] did it give?
The inhibition at 1 µM was 74%.

Cc1ccccc1-c1cc(COc2cccnc2)ccc1C(=O)N[C@@H](CCS(C)(=O)=O)C(=O)O [Example 311, N-[4-(3-Pyridyloxymethyl)-2-(2-methylphenyl)benzoyl]-2-amino-4-(methylsulfonyl)butanoic Acid] was tested. Which inhibition at 1 µM [1] did it give?
The inhibition at 1 µM was 97%.

For CSCC[C@H](NC(=O)c1ccc(CNc2cccnc2)cc1-c1ccccc1)C(=O)O [Example 227, [4-(Pyrid-3-ylaminomethyl)-2-phenylbenzoyl]methionine], which inhibition at 1 µM [1] is on record?
The inhibition at 1 µM was 94%.
